Among the data in ChEMBL document CHEMBL6092178, “Discovery of a novel KV7.2/7.3 channels agonist for the treatment of neuropathic pain” (Eur J Med Chem, 2024) are EC50 and Activity values, retold here.

Calls of active or inactive are those of the source.

Series [1] addresses Voltage-gated potassium channel, KQT; KCNQ2(Kv7.2)/KCNQ3(Kv7.3) (Homo sapiens, UniProt O43525+O43526). Put plainly: Agonist activity at human KCNQ2/3 transfected in human HEK293 cells incubated for 30 mins by fluorimetric assay. It is filed as cell-based.
The subject of series [2] is Rattus norvegicus. Description: Antinociceptive activity against formalin-induced pain in male Sprague-Dawley rat assessed as reduction in nociceptive response at 40 mg/kg, IG pretreated for 5 mins followed by formalin challenge and measured for first 9 mins (phase I). Format: functional, organism-based. The following applies: time 14.0 min.
Series [3] relates to Rattus norvegicus. Put plainly: Antinociceptive activity against formalin-induced pain in male Sprague-Dawley rat assessed as reduction in nociceptive response at 40 mg/kg, IG pretreated for 5 mins followed by formalin challenge and measured for 10 to 60 mins (phase II). Format: functional, organism-based. The conditions noted are these: time 15-65 min.
The test system of series [4] is Rattus norvegicus. Description: Antiallodynic activity in spinal nerve ligation-induced neuropathic pain male Sprague-Dawley rat model assessed as mechanical withdrawal threshold at 40 mg/kg, IG pretreated with compound for 1 hr and measured on day 15 after surgery. The following applies: time 15.0 day. It is filed as functional, organism-based.
The test system of another series is Mus musculus. Description: Induction of motor coordination impairment in mouse at 20 mg/kg, IG measured upto 120 mins by rotarod method. Format: functional, organism-based. For orientation: In the rotarod test animals must keep their balance on a rotating rod.
A short description of series [5]: Hepatotoxicity in rat assessed as change in serum AST level at 10 to 40 mg/kg, IG administered for 28 days and measured after 14 days. It is filed as toxicity, organism-based. The following applies: in vivo, po, 672 h, dose 10-40 mg/kg, time 28 day.
Series [6] in a line: Hepatotoxicity in rat assessed as change in serum ALP level at 10 to 40 mg/kg, IG administered for 28 days and measured after 14 days. Format: toxicity, organism-based. The conditions noted are these: in vivo, po, 672 h, dose 10-40 mg/kg, time 28 day.
A short description of series [7]: Hepatotoxicity in rat assessed as change in serum total bilirubin (TBIL) level at 10 to 40 mg/kg, IG administered for 28 days and measured after 14 days. It is filed as toxicity, organism-based. The following applies: in vivo, po, 672 h, dose 10-40 mg/kg, time 28 day.
Series [8] is described as follows: Hepatotoxicity in rat assessed as increase in serum ALT level at 10 to 20 mg/kg, IG administered for 28 days and measured after 14 days relative to control. It is filed as toxicity, organism-based. The following applies: in vivo, po, 672 h, dose 10-20 mg/kg, time 28 day.
The nature of series [9]: Hepatotoxicity in rat assessed as increase in serum ALT level at 40 mg/kg, IG administered for 28 days and measured after 14 days. Format: toxicity, organism-based. The following applies: in vivo, po, 672 h, time 28 day.
Series [10] can be described thus: Hepatotoxicity in rat assessed as increase in serum TBIL level at 40 mg/kg, IG administered for 28 days and measured after 14 days. Format: toxicity, organism-based. The following applies: in vivo, po, 672 h, time 28 day.

Sequence of Voltage-gated potassium channel, KQT; KCNQ2(Kv7.2)/KCNQ3(Kv7.3) (O43526 whole entry): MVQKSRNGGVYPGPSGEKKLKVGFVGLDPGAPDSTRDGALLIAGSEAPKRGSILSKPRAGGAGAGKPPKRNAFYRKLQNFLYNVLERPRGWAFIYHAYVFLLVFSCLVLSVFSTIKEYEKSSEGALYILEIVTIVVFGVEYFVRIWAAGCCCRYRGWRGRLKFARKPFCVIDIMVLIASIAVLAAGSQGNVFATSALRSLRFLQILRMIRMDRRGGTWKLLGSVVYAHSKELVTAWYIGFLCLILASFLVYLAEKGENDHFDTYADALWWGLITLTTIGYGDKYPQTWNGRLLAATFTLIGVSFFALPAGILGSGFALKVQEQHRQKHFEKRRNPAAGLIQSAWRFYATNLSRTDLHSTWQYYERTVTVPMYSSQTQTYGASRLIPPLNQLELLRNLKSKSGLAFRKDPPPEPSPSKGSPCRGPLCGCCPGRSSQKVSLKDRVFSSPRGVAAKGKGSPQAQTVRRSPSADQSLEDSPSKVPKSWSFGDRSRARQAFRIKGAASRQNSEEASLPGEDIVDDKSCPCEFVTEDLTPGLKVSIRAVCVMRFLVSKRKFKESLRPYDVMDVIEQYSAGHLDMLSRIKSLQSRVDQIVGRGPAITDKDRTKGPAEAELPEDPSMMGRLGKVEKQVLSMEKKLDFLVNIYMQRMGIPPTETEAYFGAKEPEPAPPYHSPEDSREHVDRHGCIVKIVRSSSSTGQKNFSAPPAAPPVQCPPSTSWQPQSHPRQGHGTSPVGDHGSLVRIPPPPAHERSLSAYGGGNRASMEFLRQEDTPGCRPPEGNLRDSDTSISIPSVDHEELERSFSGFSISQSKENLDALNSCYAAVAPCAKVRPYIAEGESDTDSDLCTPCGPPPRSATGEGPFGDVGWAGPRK
Sequence of Voltage-gated potassium channel, KQT; KCNQ2(Kv7.2)/KCNQ3(Kv7.3) (O43525 whole entry): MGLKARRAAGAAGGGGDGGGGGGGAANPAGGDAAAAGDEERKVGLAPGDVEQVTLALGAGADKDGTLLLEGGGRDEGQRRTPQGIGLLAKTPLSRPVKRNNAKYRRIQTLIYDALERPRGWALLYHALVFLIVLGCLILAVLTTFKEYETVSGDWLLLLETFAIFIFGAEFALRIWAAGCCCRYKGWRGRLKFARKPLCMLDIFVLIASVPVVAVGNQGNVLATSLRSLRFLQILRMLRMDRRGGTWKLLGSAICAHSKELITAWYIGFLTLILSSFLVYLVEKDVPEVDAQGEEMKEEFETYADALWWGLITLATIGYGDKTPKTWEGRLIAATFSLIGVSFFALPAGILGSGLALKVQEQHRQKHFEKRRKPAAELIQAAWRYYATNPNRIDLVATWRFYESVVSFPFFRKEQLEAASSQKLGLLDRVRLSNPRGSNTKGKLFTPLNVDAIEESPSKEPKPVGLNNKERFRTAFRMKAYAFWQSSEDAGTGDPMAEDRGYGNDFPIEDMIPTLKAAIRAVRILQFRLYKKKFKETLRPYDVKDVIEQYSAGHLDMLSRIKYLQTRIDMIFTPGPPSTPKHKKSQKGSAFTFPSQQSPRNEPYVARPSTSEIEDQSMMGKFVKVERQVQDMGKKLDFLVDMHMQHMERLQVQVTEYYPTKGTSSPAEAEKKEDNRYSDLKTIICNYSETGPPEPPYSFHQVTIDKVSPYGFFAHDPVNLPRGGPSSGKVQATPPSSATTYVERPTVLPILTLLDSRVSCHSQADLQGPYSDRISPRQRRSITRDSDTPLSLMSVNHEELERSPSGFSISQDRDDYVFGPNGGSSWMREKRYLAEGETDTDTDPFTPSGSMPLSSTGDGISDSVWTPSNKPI

The term EC50 denotes the concentration needed to bring the measured effect to its halfway point. Lower therefore signals a more potent agent. For the compound `CCOC(=O)Nc1nc(OCc2ccc(F)cc2)ccc1N`, the response in series [1] was half-maximal at 12.1 µM (EC50).

Compound `CC(=O)Nc1nc(OCc2ccc(C(F)(F)F)cc2)ccc1N` showed an EC50 in series [1] of 8.9 µM.

In series [1], `CC(=O)Nc1nc(OCc2ccc(Cl)c(Cl)c2)ccc1N` came in with a concentration for a half-maximal effect (EC50) of 10.1 µM.

As to `CC(C)C[C@H](CN)CC(=O)O`, the outcome in the series with Rattus norvegicus [2] and in the series on Mus musculus was inactive. Further, the result with Rattus norvegicus [3] and in the series on Rattus norvegicus [4] was Active.

Take `CCC(=O)Nc1nc(OCc2ccc(F)cc2)ccc1N`: in [1], the EC50 came out at 13.9 µM.

The compound `CC(=O)Nc1nc(OCc2ccc(-c3ccccc3)cc2)ccc1N` came in with a half-maximal effective concentration (EC50) in series [1] of 131 µM.

Turning to `CC(=O)Nc1ccc(OCc2ccc(F)cc2)nc1NC(C)=O`, the EC50 in series [1] is 7.61 µM.

The compound `Nc1ccc(OCc2ccc(F)cc2)cc1NC(=O)C1CC1` showed an EC50 in series [1] of 30.3 µM.

Compound `CC(=O)Nc1nc(OC(C)c2ccc(F)cc2)ccc1N` (centres undefined) gave a half-maximal effective concentration (EC50) in series [1] of 18.9 µM.

Consider `COc1cccc(COc2ccc(N)c(NC(C)=O)n2)c1`, for which the EC50 in [1] was determined as 30.3 µM.

In [1], `CC(=O)Nc1nc(OCc2ccncc2)ccc1N` had a concentration giving a half-maximal response (EC50) of 35.3 µM.

In the case of `CC(=O)Nc1nc(OCCc2ccc(F)cc2)ccc1N`, in series [1], the EC50 turned out to be 9.39 µM.

The compound `Nc1ccc(OCc2ccc(F)cc2)nc1NC(=O)C1CCCC1` returned an EC50 in [1] of 131 µM.

In series [1], `Nc1ccc(OCc2ccc(F)cc2)cc1NC(=O)c1ccccc1` yielded a 50% effective concentration (EC50) of 196 µM.

For the compound `COc1ccc(COc2ccc(N)c(NC(C)=O)n2)cc1`, in series [1], the half-maximal effective concentration (EC50) was found to be 13.5 µM.

As for `CCOC(=O)Nc1ccc(OCc2ccc(F)cc2)nc1NC(C)=O`, in series [1], the 50% effective concentration (EC50) worked out at 6.19 µM.

As for `Nc1ccc(OCc2ccc(F)cc2)nc1NC(=O)c1ccccc1`, in [1], the response was half-maximal at 98.6 µM (EC50).

For the compound `Nc1ccc(OCc2ccc(F)cc2)nc1N1CCCC1=O`, the EC50 in series [1] is 12.7 µM.

For the compound `CC(C)C(=O)Nc1nc(OCc2ccc(F)cc2)ccc1N`, in series [1], the EC50 was 18.4 µM.

For `CC(=O)Nc1nc(OCc2ccc3c(c2)OCO3)ccc1N`, the EC50 in series [1] was 128 µM.

`CCOC(=O)Nc1ccc(NCc2ccc(F)cc2)nc1N` [FLUPIRTINE]: in series [1], it took 1.9 µM to reach a half-maximal effect (EC50). In addition, the Activity result in [5] was “Non-toxic”; in [6], “Non-toxic”; in series [7], “Non-toxic”; in series [8], below 70%; in series [9], “Toxic”; in series [10], “Toxic”.

In turn, `Nc1ccc(OCc2ccc(F)cc2)nc1NC(=O)C1CCCCC1` displayed an EC50 in series [1] of 164 µM.

In turn, `CC(=O)Nc1nc(OCc2ccc3ccccc3c2)ccc1N` had a 50% effective concentration (EC50) in series [1] of 189 µM.

On to `CC(=O)Nc1nc(OCc2cccc3ccccc23)ccc1N`, for which the EC50 in [1] was found to be 218 µM.

Consider `CC(=O)Nc1cc(OCc2ccc(F)cc2)ccc1N`, for which the midpoint of the response in series [1], the EC50, lay at 13.5 µM.
